These results are taken from patent US11001564B2, “Substituted chromane-8-carboxamide compounds and analogues thereof, and methods using same” (priority 2016, dated 2021).

What is called pEC50 is the EC50 on a negative log10 scale, so that one unit is a factor of ten.

pEC50: −log10 of the molar value. Structures can show the parent of a compound that is named as a salt.

The test system of one experiment is HBV rcDNA in HepDE19 cells. Briefly: HepDE19 assay with bDNA quantitation of HBV rcDNA. The format is cell-based, hepatitis B virus (HBV). Conditions: HepDE19 cells, 7 day incubation, rcDNA by Quantigene 2.0 bDNA assay; read-out: DE-19 bDNA EC50. As to the method:
HepDE19 Assay with bDNA Quantitation of HBV rcDNA:
HepDE19 cell culture system is a HepG2 (human hepatocarcinoma) derived cell line that supports HBV DNA replication and cccDNA formation in a tetracycline (Tet)-regulated manner and produces HBV rcDNA and a detectable reporter molecule dependent on the production and maintenance of cccDNA (Guo, et al., 2007, J. Virol. 81:12472-12484).
HepDE19 (50,000 cells/well) were plated in 96 well collagen-coated tissue-culture treated microtiter plates in DMEM/F12 medium supplemented with 10% fetal bovine serum, 1% penicillin-streptomycin and 1 μg/mL tetracycline and incubated in a humidified incubator at 37° C. and 5% CO2 overnight. Next day, the cells were switched to fresh medium without tetracycline and incubated for 4 hours at 37° C. and 5% CO2. The cells were treated with fresh Tet-free medium with compounds at concentrations starting at 25 μM and a serial, ½ log, 8-point, titration series in duplicate. The final DMSO concentration in the assay was 0.5%. The plates were incubated for 7 days in a humidified incubator at 37° C. and 5% CO2. Following a 7 day-incubation, the level of rcDNA present in the inhibitor-treated wells was measured using a Quantigene 2.0 bDNA assay kit (Affymetrix, Santa Clara, Calif.) with HBV specific custom probe set and manufacturers instructions. Concurrently, the effect of compounds on cell viability was assessed using replicate plates, plated at a density of 5,000 cells/well and incubated for 4 days, to determine the ATP content as a measure of cell viability using the cell-titer glo reagent (CTG; Promega Corporation, Madison, Wis.) as per manufacturer's instructions. The plates were read using a Victor luminescence plate reader (PerkinElmer Model 1420 Multilabel counter) and the relative luminescence units (RLU) data generated from each well was calculated as % inhibition of the untreated control wells and analyzed using XL-Fit module in Microsoft Excel to determine EC50 and EC90 (bDNA) and CC50 (CTG) values using a 4-parameter curve fitting algorithm.
Representative compounds of the invention were tested for their ability to inhibit formation of relaxed circular DNA (rcDNA) in a HepDE19 assay, as described elsewhere herein.
On to `CN1CCC(NC(=O)OCc2ccccn2)c2cccc(C(=O)Nc3ccc(F)c(Cl)c3)c21` (single isomer, unassigned) [Compound 182, Pyridin-2-ylmethyl (8-((3-chloro-4-fluorophenyl)carbamoyl)-1-methyl-1,2,3,4-tetrahydroquinolin-4-yl)carbamate], for which the negative-log EC50 (pEC50) is 4.92.
On the same count and under the same terms, under `O=C(N[C@H]1CCOc2c(C(=O)Nc3ccc(F)c(F)c3)cccc21)OCC1CCNC1` (single isomer, unassigned) [Compound 109] stands 4.68.

The same experiment, now with this note: Hepatitis B virus, HepDE19, 168 h, HepDE19 cells, 7 day incubation, rcDNA by Quantigene 2.0 bDNA assay; read-out: DE-19 bDNA EC50.
Take `O=C1CC[C@H](COC(=O)N[C@H]2CCOc3c(C(=O)Nc4ccc(F)c(Cl)c4)ccc(F)c32)N1` [Compound 155, ((R)-5-Oxopyrrolidin-2-yl)methyl ((S)-8-((3-chloro-4-fluorophenyl)carbamoyl)-5-fluorochroman-4-yl)carbamate]: the pEC50 is 5.92.
The same measure, in the same setting: the figure for `COC(=O)N[C@H]1CCOc2c(C(=O)Nc3ccc(F)c(C)c3)cccc21` [Compound 50, Methyl (S)-(8-((4-fluoro-3-methylphenyl)carbamoyl)chroman-4-yl)carbamate] is 6.19; for `COCCCOC(=O)N[C@H]1CCOc2c(C(=O)Nc3ccc(F)c(F)c3)cccc21` [Compound 19, 3-Methoxypropyl (8-((3,4-difluorophenyl)carbamoyl)chroman-4-yl) carbamate] it is 5.22.
Same read-out and setting: under `O=C1CCOc2c1cccc2C(=O)Nc1ccc(F)c(F)c1` [Compound 2, N-(3,4-difluorophenyl)-4-oxochromane-8-carboxamide] stands 5.64; under `Cc1cc(NC(=O)c2ccc(F)c3c2OCC[C@@H]3NC(=O)CCc2ccccn2)ccc1F` [Compound 151, (S)-5-Fluoro-N-(4-fluoro-3-methylphenyl)-4-(3-(pyridin-2-yl)propanamido)chromane-8-carboxamide], 6.25.
Same read-out and setting: under `O=C(N[C@H]1CCOc2c(C(=O)Nc3ccc(F)c(Cl)c3)cccc21)OCc1cnccn1` [Compound 112, Pyrazin-2-ylmethyl (S)-(8-((3-chloro-4-fluorophenyl)carbamoyl)chroman-4-yl)carbamate] stands 6.11; under `CNC(=O)N[C@H]1CCOc2c(C(=O)Nc3ccc(F)c(F)c3)cc(N)cc21` [Compound 149, (S)-6-Amino-N-(3,4-difluorophenyl)-4-(3-methylureido)chromane-8-carboxamide], 4.70.
Regarding `CNC(=O)N[C@@H]1CCOc2c(C(=O)Nc3ccc(F)c(F)c3)ccc(F)c21` [Compound 41, (R)-N-(3,4-difluorophenyl)-5-fluoro-4-(3-methylureido) chromane-8-carboxamide], the pEC50 was 4.64.
With `O=C(N[C@H]1CCOc2c(C(=O)Nc3ccc(F)c(F)c3)cccc21)OCC1CCCNC1` (single isomer, unassigned) [Compound 87], the pEC50 is 4.80.
On the same count and under the same terms, the figure for `COC(=O)N[C@H]1CCOc2c(C(=O)Nc3ccccc3)cccc21` [Compound 35, Methyl (S)-(8-(phenylcarbamoyl)chroman-4-yl)carbamate] is 5.12; for `O=C(N[C@H]1CCOc2c1ccc(F)c2C(=O)Nc1ccc(F)c(Cl)c1)OCc1ccccn1` [Compound 76, (S)-Pyridin-2-ylmethyl (8-((3-chloro-4-fluorophenyl)carbamoyl)-7-fluorochroman-4-yl)carbamate] it is 5.72.
As for `COCC(=O)N[C@H]1CCOc2c(C(=O)Nc3ccc(F)c(C)c3)ccc(F)c21` [Compound 129, (4S)-5-Fluoro-N-(4-fluoro-3-methylphenyl)-4-(2-methoxyacetamido)-3,4-dihydro-2H-1-benzopyran-8-carboxamide], the pEC50 is 5.60.
As for `CNC(=O)CC1CCOc2c(C(=O)Nc3ccc(F)c(F)c3)cccc21` (single isomer, unassigned) [Compound 131, N-(3,4-difluorophenyl)-4-(2-(methylamino)-2-oxoethyl) chromane-8-carboxamide], the pEC50 is 4.70.
The same measure, in the same setting: the figure for `O=C(N[C@@H]1CCSc2c(C(=O)Nc3ccc(F)c(Cl)c3)ccc(F)c21)OCc1ccccn1` [Compound 173] is 5.06; for `Nc1cc(C(=O)Nc2ccc(F)c(F)c2)c2c(c1)[C@@H](NC(=O)OCc1ccccn1)CCO2` [Compound 157, Pyridin-2-ylmethyl (S)-(6-amino-8-((3,4-difluorophenyl)carbamoyl)chroman-4-yl)carbamate] it is 4.96; for `COC(=O)N[C@H]1CCOc2c(C(=O)NCc3ccc(F)cc3)cccc21` [Compound 31, Methyl (S)-(8-((4-fluorobenzyl)carbamoyl)chroman-4-yl)carbamate] it is 4.77.
Regarding `Cc1ccnc(N[C@H]2CCOc3c(C(=O)Nc4ccc(F)c(F)c4)cccc32)n1` [Compound 57, (S)—N-(3,4-Difluorophenyl)-4-((4-methylpyrimidin-2-yl)amino)chromane-8-carboxamide], the pEC50 was 5.47.
Turning to `O=C(Nc1cccc(Cl)c1)c1cccc2c1OCCC2` [Compound 1, N-(3-chlorophenyl)chromane-8-carboxamide], the pEC50 is 4.64.
Regarding `O=C(N[C@H]1CCOc2c(C(=O)Nc3ccc(F)c(F)c3)cccc21)OCc1ccncc1` [Compound 29, Pyridin-4-ylmethyl-(8-((3,4-difluorophenyl)carbamoyl)chroman-4-yl)carbamate], the pEC50 was 5.66.
Take `O=C(N[C@H]1CCOc2c(C(=O)Nc3ccc(F)c(F)c3)cccc21)OCc1cnccn1` [Compound 81, Pyrazin-2-ylmethyl (S)-(8-((3,4-difluorophenyl)carbamoyl)chroman-4-yl)carbamate]: the pEC50 was 5.62.
The same measure, in the same setting: under `CN(C)C(=O)CC1CCOc2c(C(=O)Nc3ccc(F)c(F)c3)cccc21` (centres unmarked) [Compound 133, N-(3,4-difluorophenyl)-4-(2-(dimethylamino)-2-oxoethyl) chromane-8-carboxamide] stands 4.85; under `Cc1cc(NC(=O)c2ccc(F)c3c2OCC[C@@H]3NC(=O)OCc2cccc(N3CCOCC3)n2)ccc1F` [Compound 167, (6-Morpholinopyridin-2-yl)methyl (S)-(5-fluoro-8-((4-fluoro-3-methylphenyl)carbamoyl)chroman-4-yl)carbamate], 5.74; under `COC(=O)N[C@H]1CCOc2c(C(=O)Nc3ccc(F)c(F)c3)cc(N)cc21` [Compound 148, Methyl (S)-(6-amino-8-((3,4-difluorophenyl)carbamoyl)chroman-4-yl)carbamate], 5.19.

The same experiment, now with this note: Hepatitis B virus, HepDE19, 168 h, read-out: DE-19 bDNA EC50, HepDE19 cells, 7 day incubation, rcDNA by Quantigene 2.0 bDNA assay.
On to `O=C(N[C@H]1CCOc2c(C(=O)Nc3ccc(F)c(F)c3)cccc21)OCc1ncccc1Cl` [Compound 123, (3-Chloropyridin-2-yl)methyl (S)-(8-((3,4-difluorophenyl)carbamoyl)chroman-4-yl)carbamate hydrochloride], for which the pEC50 is 5.06.
On the same count and under the same terms, the figure for `COC(=O)N[C@H]1CCOc2c1ccc(F)c2C(=O)Nc1ccc(F)c(F)c1` [Compound 47, Methyl (8-((3,4-difluorophenyl)carbamoyl)-7-fluorochroman-4-yl)carbamate] is 5.44; for `CNC(=O)N[C@H]1CCOc2c1ccc(F)c2C(=O)Nc1ccc(F)c(Cl)c1` [Compound 75, (S)—N-(3-Chloro-4-fluorophenyl)-7-fluoro-4-(3-methylureido)chromane-8-carboxamide] it is 5.49.
On the same count and under the same terms, the figure for `O=C(N[C@H]1CCSc2c(C(=O)Nc3ccc(F)c(F)c3)ccc(F)c21)OCc1ccccn1` [Compound 169, Pyridin-2-ylmethyl (S)-(8-((3,4-difluorophenyl)carbamoyl)-5-fluorothiochroman-4-yl)carbamate hydrochloride] is 5.28.
Still for that read-out and setting: the figure for `COCCOC(=O)N[C@H]1CCOc2c(C(=O)Nc3ccc(F)c(F)c3)cccc21` [Compound 22, 2-Methoxyethyl (8-((3,4-difluorophenyl)carbamoyl)chroman-4-yl) carbamate] is 5.33.
Regarding `COC(=O)N[C@@H]1CCOc2c(C(=O)Nc3ccc(F)c(Cl)c3)ccc(F)c21` [Compound 92, (R)-Methyl (8-((3-chloro-4-fluorophenyl)carbamoyl)-5-fluorochroman-4-yl) carbamate], the pEC50 was 5.34.

Still in this experiment, the particulars now being: read-out: DE-19 bDNA EC50; HepDE19 cells, 7 day incubation, rcDNA by Quantigene 2.0 bDNA assay.
With `O=C(N[C@H]1CCOc2c(C(=O)Nc3ccc(F)c(F)c3)cccc21)OC1CCOC1` (single isomer, unassigned) [Compound 26, Tetrahydrofuran-3-yl-(8-((3,4-difluorophenyl)carbamoyl)chroman-4-yl)carbamate], the pEC50 was 5.13.
